Assay results taken from ChEMBL document CHEMBL1134718, “N-acyloxymethyl carbamate linked prodrugs of pseudomycins are novel antifungal agents” (2001).
Converted amounts (≈) assume the structure as drawn. Positions of bridges follow the written chain, without caps; N, C: chain ends. Non-standard residues stand in square brackets, D forms with d. Residues, ends and D or L forms follow the SMILES beside them. *: point of attachment. Tetradecanoyl(3R-OH) = CCCCCCCCCCC[C@@H](O)CC(=O)*; Asp(3S-OH) = N[C@H](C(=O)O)[C@H](O)C(=O)O; Thr(4-Cl) = N[C@H](C(=O)O)[C@H](O)CCl; aThr = C[C@H](O)[C@H](N)C(=O)O; dDab = NCC[C@@H](N)C(=O)O; Dab = NCC[C@H](N)C(=O)O; Dhb = C/C=C(\N)C(=O)O

Experiments:
Aspergillus fumigatus = assay: Minimum inhibitory concentration against Aspergillus fumigatus; assay type: functional
Cryptococcus neoformans = assay: Minimum inhibitory concentration against Cryptococcus neoformans.
Mus musculus [1] = assay: Effective dose against disseminated Candidiasis mouse model after intraperitoneal administration; assay type: functional
Candida albicans = assay: Minimum inhibitory concentration against Candida albicans.; assay type: functional
Mus musculus [2] = assay: The compound was tested for antifungal activity in tail vein irritation model 7 days after a dose of 20 mg/kg administered intravenously at 0,24,48,72 h; Negative; assay type: functional, organism-based; set-up: dose 20 mg/kg
Mus musculus [3] = assay: The compound was tested for antifungal activity in tail vein irritation model 7 days after a dose of 20 mg/kg administered intravenously at 0,24,48,72 h; Positive; assay type: functional, organism-based; set-up: dose 20 mg/kg
Mus musculus [4] = assay: Effective dose against disseminated Candidiasis mouse model after intraperitoneal administration; Value represented as 6.4/14.1; assay type: functional
Mus musculus [5] = assay: Effective dose against disseminated Candidiasis mouse model after intraperitoneal administration; Value ranges from 7.8-12.4; assay type: functional
Mus musculus [6] = assay: Effective dose against disseminated Candidiasis mouse model after intraperitoneal administration; Value ranges from 2.5-7.2; assay type: functional

| SMILES | MIC (Aspergillus fumigatus) | MIC (Cryptococcus neoformans) | ED50 (Mus musculus [1]) | MIC (Candida albicans) | Toxicity (Mus musculus [2]) | Toxicity (Mus musculus [3]) | further results |
| --- | --- | --- | --- | --- | --- | --- | --- |
| C/C=C1/NC(=O)[C@H]([C@H](C)O)NC(=O)[C@H](CCNC(=O)OCOC(=O)C(C)(C)C)NC(=O)[C@H](CCCCNC(=O)OCOC(=O)C(C)(C)C)NC(=O)[C@H](CC(=O)O)NC(=O)[C@@H](CCNC(=O)OCOC(=O)C(C)(C)C)NC(=O)[C@@H](NC(=O)C[C@H](O)CCCCCCCCCCCCC)COC(=O)[C@H]([C@H](O)CCl)NC(=O)[C@H]([C@H](O)C(=O)O)NC1=O | > 20 µg/mL | > 20 µg/mL | 9 mg 4kg-1 | > 20 µg/mL | – | – | – |
| C/C=C1/NC(=O)[C@H]([C@H](C)O)NC(=O)[C@@H](CCNC(=O)OC(C)OC(C)=O)NC(=O)[C@H](CCCCNC(=O)OC(C)OC(C)=O)NC(=O)[C@H](CC(=O)O)NC(=O)[C@@H](CCNC(=O)OC(C)OC(C)=O)NC(=O)[C@@H](NC(=O)C[C@H](O)CCCCCCCCCCC)COC(=O)[C@H]([C@H](O)CCl)NC(=O)[C@H]([C@H](O)C(=O)O)NC1=O (some centres undefined) | – | – | >20 mg 4kg-1 | – | Negative | – | – |
| C/C=C1/NC(=O)[C@H]([C@H](C)O)NC(=O)[C@@H](CCNC(=O)OCOC(C)=O)NC(=O)[C@H](CCCCNC(=O)OCOC(C)=O)NC(=O)[C@H](CC(=O)O)NC(=O)[C@@H](CCNC(=O)OCOC(C)=O)NC(=O)[C@@H](NC(=O)C[C@H](O)CCCCCCCCCCC)COC(=O)[C@H]([C@H](O)CCl)NC(=O)[C@H]([C@H](O)C(=O)O)NC1=O | – | – | – | – | – | Positive | – |
| C/C=C1/NC(=O)[C@H]([C@H](C)O)NC(=O)[C@@H](CCNC(=O)OCOC(=O)C(C)(C)C)NC(=O)[C@H](CCCCNC(=O)OCOC(=O)C(C)(C)C)NC(=O)[C@H](CC(=O)O)NC(=O)[C@@H](CCNC(=O)OCOC(=O)C(C)(C)C)NC(=O)[C@@H](NC(=O)C[C@H](O)CCCCCCCCCCCCC)COC(=O)[C@H]([C@H](O)CCl)NC(=O)[C@H]([C@H](O)C(=O)O)NC1=O | – | – | – | – | Negative | – | – |
| C/C=C1/NC(=O)[C@H]([C@H](C)O)NC(=O)[C@@H](CCN)NC(=O)[C@H](CCCCN)NC(=O)[C@H](CC(=O)O)NC(=O)[C@@H](CCN)NC(=O)[C@@H](NC(=O)C[C@H](O)CCCCCCCCCCCCC)COC(=O)[C@H]([C@H](O)CCl)NC(=O)[C@H]([C@H](O)C(=O)O)NC1=O | – | – | – | – | – | Positive | – |
| C/C=C1/NC(=O)[C@H]([C@H](C)O)NC(=O)[C@H](CCNC(=O)OCOC(C)=O)NC(=O)[C@H](CCCCNC(=O)OCOC(C)=O)NC(=O)[C@H](CC(=O)O)NC(=O)[C@@H](CCNC(=O)OCOC(C)=O)NC(=O)[C@@H](NC(=O)C[C@H](O)CCCCCCCCCCC)COC(=O)[C@H]([C@H](O)CCl)NC(=O)[C@H]([C@H](O)C(=O)O)NC1=O | – | – | 13 mg 4kg-1 | – | – | – | – |
| C/C=C1/NC(=O)[C@H]([C@H](C)O)NC(=O)[C@H](CCNC(=O)OCOC(=O)C(C)(C)C)NC(=O)[C@H](CCCCNC(=O)OCOC(=O)C(C)(C)C)NC(=O)[C@H](CC(=O)O)NC(=O)[C@@H](CCNC(=O)OCOC(=O)C(C)(C)C)NC(=O)[C@@H](NC(=O)C[C@H](O)CCCCCCCCCCC)COC(=O)[C@H]([C@H](O)CCl)NC(=O)[C@H]([C@H](O)C(=O)O)NC1=O | > 20 µg/mL | > 20 µg/mL | – | > 20 µg/mL | – | – | ED50 (Mus musculus [4]): 6.4 mg 4kg-1 |
| C/C=C1/NC(=O)[C@H]([C@H](C)O)NC(=O)[C@@H](CCNC(=O)OCOC(=O)C(C)(C)C)NC(=O)[C@H](CCCCNC(=O)OCOC(=O)C(C)(C)C)NC(=O)[C@H](CC(=O)O)NC(=O)[C@@H](CCNC(=O)OCOC(=O)C(C)(C)C)NC(=O)[C@@H](NC(=O)C[C@H](O)CCCCCCCCCCC)COC(=O)[C@H]([C@H](O)CCl)NC(=O)[C@H]([C@H](O)C(=O)O)NC1=O | – | – | – | – | Negative | – | – |
| C/C=C1/NC(=O)[C@H]([C@H](C)O)NC(=O)[C@H](CCN)NC(=O)[C@H](CCCCN)NC(=O)[C@H](CC(=O)O)NC(=O)[C@@H](CCN)NC(=O)[C@@H](NC(=O)C[C@H](O)CCCCCCCCCCCCC)COC(=O)[C@H]([C@H](O)CCl)NC(=O)[C@H]([C@H](O)C(=O)O)NC1=O [PSEUDOMYCIN C] | 10 µg/mL (≈ 8.09 µM) | < 0.02 µg/mL | – | 0.312 µg/mL (≈ 0.252 µM) | – | – | ED50 (Mus musculus [5]): 7.8 mg 4kg-1 |
| C/C=C1\NC(=O)[C@H]([C@H](C)O)NC(=O)[C@H](CCN)NC(=O)[C@H](CCCCN)NC(=O)[C@H](CC(=O)O)NC(=O)[C@@H](CCN)NC(=O)[C@@H](NC(=O)C[C@H](O)CCCCCCCCCCC)COC(=O)[C@H]([C@H](O)CCl)NC(=O)[C@H]([C@H](O)C(=O)O)NC1=O [PSEUDOMYCIN B] ({Tetradecanoyl(3R-OH)}-S[dDab]DK[Dab][aThr][Dhb][Asp(3S-OH)][Thr(4-Cl)]; ester 1-C) | 20 µg/mL (≈ 16.6 µM) | 0.039 µg/mL (≈ 0.0323 µM) | – | 0.625 µg/mL (≈ 0.517 µM) | – | Positive | ED50 (Mus musculus [6]): 2.5 mg 4kg-1 |
